# Test results: patent publication US9617256B2 (priority 2007, dated 2017)
# Assays:
# AECO001 HSA AGP = experiment: MIC broth microdilution, AECO001 HSA AGP; type: cell-based, E. coli; details: Escherichia coli
# Outline: (§1)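 Minimum inhibitory concentrations followed CLSI broth microdilution guidelines: cation-adjusted Mueller-Hinton broth, 2-fold serial drug dilutions, final inoculum 3×10^5–7×10^5 CFU/mL, ambient air at 35° C. for 18-24 hours. Quality-control strains and levofloxacin monitored performance.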
# [1] = test system: AECO063 (ATCC25922 bearing an acrAB mutation); experiment: microbe, parasite or virus in culture; type: cell-based, E. coli; details: Escherichia coli, ATCC25922, read-out: MIC AECO063
# Outline: as §1
# AECO001 (ATCC25922) = experiment: MIC broth microdilution, AECO001; type: cell-based, E. coli; details: Escherichia coli, ATCC25922, read-out: MIC AECO001
# Outline: as §1
# [2] = test system: ASAU001 (laboratory strain of S. aureus, ATCC29213); experiment: MIC broth microdilution, ASAU001; type: cell-based; details: Staphylococcus aureus, ATCC29213, read-out: MIC ASAU001
# Outline: as §1
# APAE001 (ATCC27853) = experiment: MIC broth microdilution, APAE001; type: cell-based, P. aeruginosa; details: Pseudomonas aeruginosa, ATCC27853, read-out: MIC APAE001, APAE001 is ATCC27853
# Outline: as §1
# [3] = test system: APAE006 (strain of P. aeruginosa in which all efflux pumps are inactivated); experiment: microbe, parasite or virus in culture; type: cell-based; details: Pseudomonas aeruginosa, read-out: MIC APAE006, P. aeruginosa, all efflux pumps inactivated
# Outline: (§2)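 MICs come from broth microdilution in cation-adjusted Mueller-Hinton broth, final inoculum 3×10^5–7×10^5 CFU/mL, 18-24 hours at 35° C. Levofloxacin and QC strains served as assay controls.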
# [4] = test system: AABA1060 (clinical isolate of Acinetobacter baumannii); experiment: MIC broth microdilution, AABA1060; type: cell-based; details: Acinetobacter baumannii, read-out: MIC AABA1060
# Outline: as §1
# [5] = test system: APAE006 in the presence of 8 micrograms per milliliter of polymyxin B nonapeptide; type: cell-based, P. aeruginosa; details: in the presence of 8 micrograms per milliliter of polymyxin B nonapeptide
# Outline: as §2
Structure (SMILES),MIC (AECO001 HSA AGP) [µg/mL],MIC [1] [µg/mL],MIC (AECO001 (ATCC25922)) [µg/mL],MIC [2] [µg/mL],MIC (APAE001 (ATCC27853)) [µg/mL],MIC [3] [µg/mL],MIC [4] [µg/mL],MIC APAE006 + PMBN [5]
C[C@@H](NC(=O)CNC1CC1)[C@H](NC(=O)c1ccc(C#CC#Cc2ccccc2)cc1)C(=O)NO [Example 85-2],2 to 16,< 2,< 2,16 to 64,2 to 16,< 2,16 to 64,A (MIC's of 2.0 μg/mL or less = A)
C[C@@H](N)[C@H](NC(=O)c1ccc(/C=C/C#Cc2ccc(OC(F)(F)F)cc2)cc1)C(=O)NO [Example 114-7],2 to 16,< 2,2 to 16,2 to 16,2 to 16,2 to 16,2 to 16,A (MIC's of 2.0 μg/mL or less = A)
O=C(N[C@H](C(=O)NO)C1CCOCC1)c1ccc(/C=C/C#Cc2ccc(CN3CCOCC3)cc2)cc1 [Example 110-4],2 to 16,< 2,< 2,16 to 64,2 to 16,< 2,16 to 64,A (MIC's of 2.0 μg/mL or less = A)
C[C@@H](NC(=O)CNC1CC1)[C@H](NC(=O)c1ccc(C#Cc2ccc(CN3CCOCC3)cc2)cc1)C(=O)NO [Example 137-2],2 to 16,< 2,< 2,> 64,2 to 16,< 2,16 to 64,A (MIC's of 2.0 μg/mL or less = A)
O=C(N[C@H](C(=O)NO)C1CCCC1)c1ccc(C#Cc2ccc(CN3CCOCC3)cc2)cc1 [Example 66-6],2 to 16,< 2,< 2,> 64,16 to 64,< 2,16 to 64,A (MIC's of 2.0 μg/mL or less = A)
C[C@@H](N)[C@H](NC(=O)c1ccc(C#Cc2ccc(CN3CCC(F)(F)CC3)cc2)cc1)C(=O)NO [Example 115-3],< 2,< 2,< 2,> 64,2 to 16,< 2,2 to 16,A (MIC's of 2.0 μg/mL or less = A)
COCc1ccc(C#C/C=C/c2ccc(C(=O)N[C@H](C(=O)NO)[C@@H](C)N)cc2)cc1 [Example 113-9],2 to 16,< 2,< 2,16 to 64,< 2,< 2,< 2,A (MIC's of 2.0 μg/mL or less = A)
CNC[C@H](NC(=O)c1ccc(C#C/C=C/c2ccc(CN3CCOCC3)cc2)cc1)C(=O)NO [Example 99-1],2 to 16,< 2,< 2,16 to 64,2 to 16,< 2,16 to 64,A (MIC's of 2.0 μg/mL or less = A)
C[C@@H](O)[C@H](NC(=O)c1ccc(/C=C\C#Cc2ccc(CN3CCOCC3)cc2)cc1)C(=O)NO [Example 30-12b],16 to 64,< 2,2 to 16,> 64,2 to 16,< 2,16 to 64,A (MIC's of 2.0 μg/mL or less = A)
C[C@@H](N)[C@H](NC(=O)c1ccc(C#Cc2ccc(CN(C)Cc3cccnc3)cc2)cc1)C(=O)NO [Example 115-5],2 to 16,< 2,< 2,> 64,2 to 16,< 2,2 to 16,A (MIC's of 2.0 μg/mL or less = A)
CC(C)(O)[C@H](NC(=O)c1ccc(C#CC#Cc2ccccc2)cc1)C(=O)NO [Example 82-13],< 2,< 2,< 2,16 to 64,< 2,< 2,< 2,A (MIC's of 2.0 μg/mL or less = A)
C[C@@H](N)[C@H](NC(=O)c1ccc(/C=C/C#Cc2cccc(Cl)c2)cc1)C(=O)NO [Example 114-4],2 to 16,< 2,< 2,2 to 16,2 to 16,< 2,2 to 16,A (MIC's of 2.0 μg/mL or less = A)
C[C@@H](N)[C@H](NC(=O)c1ccc(C#CC#Cc2ccc(Cl)cc2)cc1)C(=O)NO [Example 82-8],2 to 16,< 2,< 2,> 64,16 to 64,< 2,> 64,A (MIC's of 2.0 μg/mL or less = A)
"O=C(CNC1CC1)NC[C@H](NC(=O)c1ccc(C#C/C=C/c2ccc(CN3CCOCC3)cc2)cc1)C(=O)NO [Example 100-1, N—[(S)-2-(2-Cyclopropylamino-acetylamino)-1-hydroxycarbamoyl-ethyl]-4-[(E)-4-(4-morpholin-4-ylmethyl-phenyl)-but-3-en-1-ynyl]-benzamide]",2 to 16,< 2,< 2,16 to 64,2 to 16,< 2,16 to 64,A (MIC's of 2.0 μg/mL or less = A)
C[C@@H](N)[C@H](NC(=O)c1ccc(C#Cc2ccc(CCN)cc2)cc1)C(=O)NO [Example 137-4],> 64,16 to 64,> 64,> 64,> 64,16 to 64,> 64,C (MIC's of greater than 16.0 μg/mL to 64.0 μg/mL = C)
C[C@@H](N)[C@H](NC(=O)c1ccc(C#C/C=C/c2ccc(CO)cc2)cc1)C(=O)NO [Example 101-3],2 to 16,< 2,< 2,16 to 64,< 2,< 2,2 to 16,A (MIC's of 2.0 μg/mL or less = A)
"O=C(NC(C(=O)NO)C1CCNC1)c1ccc(C#Cc2ccc(CN3CCOCC3)cc2)cc1 (stereo not shown) [Example 64-7, N-(hydroxycarbamoyl-pyrrolidin-3-yl-methyl)-4-(4-morpholin-4-ylmethyl-phenylethynyl)-benzamide]",16 to 64,< 2,2 to 16,> 64,2 to 16,< 2,16 to 64,A (MIC's of 2.0 μg/mL or less = A)
C[C@@H](N)[C@H](NC(=O)c1ccc(C#Cc2ccc(CNC3CCC3)cc2)cc1)C(=O)NO [Example 119-2],16 to 64,2 to 16,2 to 16,> 64,< 2,< 2,> 64,A (MIC's of 2.0 μg/mL or less = A)
NC[C@H](NC(=O)c1ccc(C#C/C=C/c2ccc(CNC3CC3)cc2)cc1)C(=O)NO [Example 102-3],2 to 16,< 2,< 2,16 to 64,< 2,< 2,16 to 64,A (MIC's of 2.0 μg/mL or less = A)
"CC(C)C(C(=O)NO)C(=O)Nc1ccc(C#Cc2ccc(CN3CCOCC3)cc2)cc1 (stereo not shown) [Example 60-5, N-Hydroxy-2-isopropyl-N′-[4-(4-morpholin-4-ylmethyl-phenylethynyl)-phenyl]-malonamide]",> 64,16 to 64,16 to 64,> 64,> 64,16 to 64,> 64,B (MIC's of greater than 2.0 μg/mL to 16.0 μg/mL = B)
C[C@@H](O)[C@H](NC(=O)c1ccc(C#CC#Cc2ccc(CNC3CC3)cc2)cc1)C(=O)NO [Example 87-2],< 2,< 2,< 2,16 to 64,< 2,< 2,16 to 64,A (MIC's of 2.0 μg/mL or less = A)
C[C@@H](N)[C@H](NC(=O)c1ccc(C#Cc2ccc(CNC3CC3)cc2)cc1)C(=O)NO [Example 115-2],2 to 16,< 2,< 2,> 64,< 2,< 2,2 to 16,A (MIC's of 2.0 μg/mL or less = A)
"COC(=O)[C@@H](NC(=O)c1ccc(C#C/C(F)=C/c2ccc(CN3CCOCC3)cc2)cc1)[C@@H](C)O [Example 109-2, (2S,3R)-methyl 2-(4-((Z)-3-fluoro-4-(4-(morpholinomethyl)phenyl)but-3-en-1-ynyl)benzamido)-3-hydroxybutanoate]",2 to 16,< 2,< 2,16 to 64,2 to 16,< 2,2 to 16,A (MIC's of 2.0 μg/mL or less = A)
